Here are results for ten compounds from patent US20260295053A1, “COMPOUNDS FOR DEGRADATION AND INHIBITION OF KRAS (G12D) PROTEIN” (Shenzhen Ionova Life Science Co., Ltd., priority 2023, published 2026).

The assay deals with T1, KRAS (G12D) (Homo sapiens, UniProt P01116, G12D).
T1 construct: in-cell western with KRAS G12D antibody after 24 h
T1 sequence (P01116 1-188 isoform P01116-2 G12D): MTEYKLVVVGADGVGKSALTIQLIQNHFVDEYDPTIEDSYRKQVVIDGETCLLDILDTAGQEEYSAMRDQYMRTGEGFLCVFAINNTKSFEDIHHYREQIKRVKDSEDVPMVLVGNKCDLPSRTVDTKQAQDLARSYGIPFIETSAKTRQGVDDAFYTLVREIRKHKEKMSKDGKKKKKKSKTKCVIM
The experiment in a line: KRAS (G12D) cellular degradation assay in AsPC-1 cells. Format: cell-based. As to conditions: 24 hours, antibody fluorescence (Odyssey CLX), DC50 half-maximal degradation concentration. The procedure:
ASPC-1 and PK-59 cellular assays ASPC-1 (ATCC cat. CRL-1682) and PK-59 (Nanjing Cobioer, Cat. No. CBP61184) were used in KRAS cellular degradation, pERK inhibition and proliferation assays. The two cell lines were maintained following vendor's instructions. For monitoring KRAS (G12D) cellular degradation and pERK biomarker inhibition, cells were seeded into a 96-well plate with 22,000 and 16,000 cells/well for assays in ASPC-1 and PK-59, respectively. Cells were incubated at 37° C. with 5% CO2 and cell density was monitored until ^~90% confluency was reached. Compounds were serially diluted at a 1:3 ratio and dispensed into each well at final concentrations ranging from […] to 1.5 nM. After incubation for 24 hours, the culture media were removed and the cells were subjected to fixation, permeabilization and blocking (Intercept blocking buffer, Li-cor). For KRAS (G12D) degradation, the cells were treated with primary antibody (KRAS G12D antibody, Cell Signaling Technologies, Cat. No. CST14429) and for β-actin (β-actin mAb, Beyotime, Cat. No. AF-5001), and followed by secondary antibodies, Anti-rabbit IgG (H+L) (DyLight™ 800 4×PEG Conjugate) or IRDye® 680RD Goat anti-Mouse IgG. For pERK inhibition assay, cells were treated with primary antibodies for pERK (Phospho-p44/42 MAPK (Erk1/2) (Thr202/Tyr204) (D13.14.4E) XP® Rabbit mAb, Cell Signaling Technologies, Cat. No. CST-4370) and β-actin (β-actin mAb, Beyotime, Cat. No. AF-5001), and followed by secondary antibodies, Anti-rabbit IgG (H+L) (DyLight™ 800 4×PEG Conjugate) or IRDye® 680RD Goat anti-Mouse IgG. Fluorescence signals were read on Odyssey CLX instrument. For cell proliferation assays, cells were seeded into a 96-well plate at 3,500 and 800 cells/well for assays in ASPC-1 and PK-59, respectively. Cells were incubated at 37° C. with 5% CO2 for overnight. Compounds were serially diluted at a 1:3 ratio and dispensed into each well at final concentrations ranging from […] to 1.5 nM. After incubation for 6 days, cell viability reagent (CellTiter Glo, Promega, Cat. No. G7573) was added to each well and luminescence was recorded on Molecular Devices Spectramax iD3 instrument. IC50, half-maximal inhibitory concentration for pERK inhibition or cell proliferation, and DC50, half-maximal degradation concentration in KRAS (G12D) cellular degradation were determined by fitting the corresponding dose response curves using GraphPad Prism software.
Wherein “A” means the value <10 nM, “B” means 10 nM<the value <100 nM, “C” means 100 nM<the value <1000 nM, and “D” means the value >1000 nM, in which, the value means the value of DC50 or IC50. NT means not tested.
As usually defined, the DC50 is the midpoint of the concentration-degradation curve. `CO[C@@H](C)COc1nc(N2C[C@@H]3C[C@H]2CN3)c2cc(C3CC3)c(-c3c(C)c(F)cc4[nH]ncc34)c(OCc3ccc(-c4cn([C@H](C(=O)N5C[C@H](O)C[C@H]5C(=O)N[C@H](C#Cc5cccc6c5ncn6C)CO)C(C)C)nn4)cc3)c2n1` [Example 140, (2S,4R)-1-((2S)-2-(4-(4-(((4-((1S,4S)-2,5-diazabicyclo[2.2.1]heptan-2-yl)-6-cyclopropyl-7-(6-fluoro-5-methyl-1H-indazol-4-yl)-2-((S)-2-methoxypropoxy)quinazolin-8-yl)oxy)methyl)phenyl)-1H-1,2,3-triazol-1-yl)-3-methylbutanoyl)-4-hydroxy-N—((R)-1-hydroxy-4-(1-methyl-1H-benzo[d]imidazol-4-yl)but-3-yn-2-yl)pyrrolidine-2-carboxamide] gave a DC50 of 10 to 100 nM. Turning to `CO[C@@H](C)COc1nc(N2C[C@@H]3C[C@H]2CN3)c2cc(C3CC3)c(-c3c(C)c(F)cc4[nH]ncc34)c(OCc3ccc(-c4cn([C@H](C(=O)N5C[C@H](O)C[C@H]5C(=O)N[C@H](C#Cc5cc(F)cc(F)c5)CO)C(C)C)nn4)cc3)c2n1` [Example 141, (2S,4R)-1-((2S)-2-(4-(4-(((4-((1S,4S)-2,5-diazabicyclo[2.2.1]heptan-2-yl)-6-cyclopropyl-7-(6-fluoro-5-methyl-1H-indazol-4-yl)-2-((S)-2-methoxypropoxy)quinazolin-8-yl)oxy)methyl)phenyl)-1H-1,2,3-triazol-1-yl)-3-methylbutanoyl)-N—((R)-4-(3,5-difluorophenyl)-1-hydroxybut-3-yn-2-yl)-4-hydroxypyrrolidine-2-carboxamide], the DC50 was 10 to 100 nM. The value for `CCn1nccc1-c1ccc([C@@H](NC(=O)[C@@H]2C[C@@H](O)CN2C(=O)[C@H](C(C)C)n2cc(-c3ccc(COc4c(-c5c(C)c(F)c(F)c6[nH]ncc56)c(C5CC5)cc5c(N(C)[C@H]6CCNC6)nc(OC[C@H](C)OC)nc45)cc3)nn2)[C@H](C)O)cc1` [Example 146, (2S,4R)-1-((2S)-2-(4-(4-(((6-cyclopropyl-7-(6,7-difluoro-5-methyl-1H-indazol-4-yl)-2-((S)-2-methoxypropoxy)-4-(methyl((S)-pyrrolidin-3-yl)amino)quinazolin-8-yl)oxy)methyl)phenyl)-1H-1,2,3-triazol-1-yl)-3-methylbutanoyl)-N-((1R,2S)-1-(4-(1-ethyl-1H-pyrazol-5-yl)phenyl)-2-hydroxypropyl)-4-hydroxypyrrolidine-2-carboxamide] was 10 to 100 nM; that for `CCn1ncc2c(C#C[C@H](CO)NC(=O)[C@@H]3C[C@@H](O)CN3C(=O)[C@H](C(C)C)n3cc(-c4ccc(COc5c(-c6c(C)c(F)cc7[nH]ncc67)c(C6CC6)cc6c(N7C[C@@H]8C[C@H]7CN8)nc(O[C@H]7C[C@@H](OC)C7)nc56)cc4)nn3)cccc21` [Example 163, (2S,4R)-1-((2S)-2-(4-(4-(((4-((1S,4S)-2,5-diazabicyclo[2.2.1]heptan-2-yl)-6-cyclopropyl-2-((1r,3R)-3-methoxycyclobutoxy)-7-(6-fluoro-5-methyl-1H-indazol-4-yl)quinazolin-8-yl)oxy)methyl)phenyl)-1H-1,2,3-triazol-1-yl)-3-methylbutanoyl)-N—((R)-4-(1-ethyl-1H-indazol-4-yl)-1-hydroxybut-3-yn-2-yl)-4-hydroxypyrrolidine-2-carboxamide] was 10 to 100 nM; that for `CCn1cc2cccc(C#C[C@H](CO)NC(=O)[C@@H]3C[C@@H](O)CN3C(=O)[C@H](C(C)C)n3cc(-c4ccc(COc5c(-c6c(C)c(F)cc7[nH]ncc67)c(C6CC6)cc6c(N7C[C@@H]8C[C@H]7CN8)nc(O[C@H]7C[C@H](OC)C7)nc56)cc4)nn3)c2n1` [Example 168, (2S,4R)-1-((2S)-2-(4-(4-(((4-((1S,4S)-2,5-diazabicyclo[2.2.1]heptan-2-yl)-6-cyclopropyl-7-(6-fluoro-5-methyl-1H-indazol-4-yl)-2-((1r,3S)-3-methoxycyclobutoxy)quinazolin-8-yl)oxy)methyl)phenyl)-1H-1,2,3-triazol-1-yl)-3-methylbutanoyl)-N—((R)-4-(2-ethyl-2H-indazol-7-yl)-1-hydroxybut-3-yn-2-yl)-4-hydroxypyrrolidine-2-carboxamide] was 10 to 100 nM. To `CCn1ncc2cccc(C#C[C@H](CO)NC(=O)[C@@H]3C[C@@H](O)CN3C(=O)[C@H](C(C)C)n3cc(-c4ccc(COc5c(-c6c(C)c(F)cc7[nH]ncc67)c(C6CC6)cc6c(N7C[C@@H]8C[C@H]7CN8)nc(O[C@H]7C[C@H](OC)C7)nc56)cc4)nn3)c21` [Example 172, (2S,4R)-1-((2S)-2-(4-(4-(((4-((1S,4S)-2,5-diazabicyclo[2.2.1]heptan-2-yl)-6-cyclopropyl-7-(6-fluoro-5-methyl-1H-indazol-4-yl)-2-((1r,3S)-3-methoxycyclobutoxy)quinazolin-8-yl)oxy)methyl)phenyl)-1H-1,2,3-triazol-1-yl)-3-methylbutanoyl)-N—((R)-4-(1-ethyl-1H-indazol-7-yl)-1-hydroxybut-3-yn-2-yl)-4-hydroxypyrrolidine-2-carboxamide] belongs 10 to 100 nM; to `CCn1nccc1-c1ccc([C@H](CO)NC(=O)[C@@H]2C[C@@H](O)CN2C(=O)[C@H](C(C)C)n2cc(-c3ccc(COc4c(-c5c(C)c(F)cc6[nH]ncc56)c(C5CC5)cc5c(N6CCC(C#N)CC6)nc(OC[C@H](C)OC)nc45)cc3)nn2)cc1` [Example 174, (2S,4R)-1-((2S)-2-(4-(4-(((4-(4-cyanopiperidin-1-yl)-6-cyclopropyl-7-(6-fluoro-5-methyl-1H-indazol-4-yl)-2-((S)-2-methoxypropoxy)quinazolin-8-yl)oxy)methyl)phenyl)-1H-1,2,3-triazol-1-yl)-3-methylbutanoyl)-N—((R)-1-(4-(1-ethyl-1H-pyrazol-5-yl)phenyl)-2-hydroxyethyl)-4-hydroxypyrrolidine-2-carboxamide], 10 to 100 nM. `CO[C@@H](C)COc1nc(N(C)[C@H]2CCNC2)c2cc(C3CCC3)c(-c3c(C)c(F)c(F)c4[nH]ncc34)c(OCc3ccc(-c4cn([C@H](C(=O)N5C[C@H](O)C[C@H]5C(=O)N[C@H](c5ccc(-c6scnc6C)cc5)[C@@H](C)O)C(C)C)nn4)cc3)c2n1` [Example 175, (2S,4R)-1-((2S)-2-(4-(4-(((6-cyclobutyl-7-(6,7-difluoro-5-methyl-1H-indazol-4-yl)-2-((S)-2-methoxypropoxy)-4-(methyl((S)-pyrrolidin-3-yl)amino)quinazolin-8-yl)oxy)methyl)phenyl)-1H-1,2,3-triazol-1-yl)-3-methylbutanoyl)-4-hydroxy-N-((1R,2R)-2-hydroxy-1-(4-(4-methylthiazol-5-yl)phenyl)propyl)pyrrolidine-2-carboxamide] returned a 50% degradation concentration (DC50) of 10 to 100 nM.

Compound `CCn1nccc1-c1ccc([C@H](CO)NC(=O)[C@@H]2C[C@@H](O)CN2C(=O)[C@H](C(C)C)n2cc(-c3ccc(COc4c(-c5c(C)c(F)cc6[nH]ncc56)c(C5CC5)cc5c(N6CCCC(C#N)CC6)nc(OC[C@H](C)OC)nc45)cc3)nn2)cc1` (stereo partly drawn) [Example 182, (2S,4R)-1-((2S)-2-(4-(4-(((4-(4-cyanoazepan-1-yl)-6-cyclopropyl-7-(6-fluoro-5-methyl-1H-indazol-4-yl)-2-((S)-2-methoxypropoxy)quinazolin-8-yl)oxy)methyl)phenyl)-1H-1,2,3-triazol-1-yl)-3-methylbutanoyl)-N—((R)-1-(4-(1-ethyl-1H-pyrazol-5-yl)phenyl)-2-hydroxyethyl)-4-hydroxypyrrolidine-2-carboxamide] registered a DC50 of 10 to 100 nM.

`CCn1nccc1-c1ccc([C@H](CO)NC(=O)[C@@H]2C[C@@H](O)CN2C(=O)[C@H](C(C)C)n2cc(-c3ccc(COc4c(-c5c(C)c(F)cc6[nH]ncc56)c(C5CC5)cc5c(N6CCNCC[C@@H]6C)nc(OC[C@H](C)OC)nc45)cc3)nn2)cc1` [Example 183, (2S,4R)-1-((2S)-2-(4-(4-(((6-cyclopropyl-7-(6-fluoro-5-methyl-1H-indazol-4-yl)-2-((S)-2-methoxypropoxy)-4-((S)-7-methyl-1,4-diazepan-1-yl)quinazolin-8-yl)oxy)methyl)phenyl)-1H-1,2,3-triazol-1-yl)-3-methylbutanoyl)-N—((R)-1-(4-(1-ethyl-1H-pyrazol-5-yl)phenyl)-2-hydroxyethyl)-4-hydroxypyrrolidine-2-carboxamide] showed a DC50 of 10 to 100 nM.
